Reference: US9850293B2, “Targeting trastuzumab-resistant HER2+ breast cancer with a HER3-targeting nanoparticle” (priority 2014, dated 2017)
“Also recorded” adds a separate entry of the source.

What was measured:
[1] = test system: MDA-MB-435 (HER2+); assay: Targeted toxicity, cell survival by MTT assay; format: cell-based, human; conditions: Dox 0.5 μM; HerPBK10 0.1 μM; day 3
Method: (§1) FIG. 7 illustrates targeted toxicity. […] Cell titer was determined by metabolic (i.e. MTT) assay. FIG. 7 upper panel illustrates the effect of HerDox on MDA-MB-231 (HER2−) and MDA-MB-435 (HER2+) cell survival. Relative surviving cell numbers are represented as a % of corresponding untreated cells. […] Relative survival (as % of untreated cells) is shown for Day 3 of treatment.
FIG. 8 illustrates receptor specificity. MDA-MB-435 (HER2+) cells were incubated with free ligand (eHRG) at 10× molar excess of HerDox for one hour at 4° C. Media was aspirated to remove free eHRG and fresh media containing HerDox (0.5 μM) was added to cells. Cell survival was measured by MTT assay and represented as a % of relative untreated cell numbers.
(§2) N=3. […] Bar, about 4 μm. […] (E) compares HerDox and Dox on off-target tissue. […] Green fluorescence in nuclei indicates apoptosis (positive TUNEL stain).
(§3) By three days, HerDox reduced HER2+ cell numbers by over 75% whereas HER2− cell survival was unaffected (FIG. 7). […] These findings emphasize the importance of targeting by showing that the untargeted drug affects nontarget (i.e. HER2−) cells. […] To test receptor targeting, the inventors used free heregulin ligand (Her or eHRG) as a competitive inhibitor. […] As a final in vitro challenge, the inventors tested whether HerDox induces toxicity specifically to HER2+ cells in a mixed culture of HER2+ and HER2− breast cancer cells. To do this, the inventors produced a HER2− cell line tagged with green fluorescent protein (GFP) for cell identification in the mixed culture (FIG. 9-A). […] Altogether, these findings indicate that HerDox has the capacity to preferentially target toxicity to HER2+ cells. […] In serum-containing media, no such loss from HerDox is detectable. […] Co-migration of HerPBK10 bands further verified that the conjugates remained intact in the cell media.

[2] = test system: MDA-MB-231 (HER2−); assay: Targeted toxicity, cell survival by MTT assay; format: cell-based, human; conditions: 0.5 μM with respect to Dox; HerPBK10 0.1 μM; day 3
Method: as §1, §2, §3

[3] = test system: HER2+ tumors (MDA-MB-435); assay: In vivo tumor toxicity (tumor growth); set-up: species or system mouse; conditions: 0.004 mg/kg with respect to Dox, daily tail vein injections for 7 days
[4] = test system: MDA-MB-435 cells; assay: HerPBK10 binding to cells in human serum (ELISA); conditions: 1.2 μg/well, sera of 5 HER2+ patients and age-matched controls
Method: FIG. 16 illustrates HerPBK10 binding to MDA-MB-435 cells in human serum from HER2+ or HER2− breast cancer patients. Cells were treated with HerPBK10 (1.2 μg/well) in media containing human serum from each of 5 HER2+ breast cancer patients or age matched HER2− controls, both obtained pre-chemotherapy treatment. Cells were processed for ELISA using an antibody directed at HerPBK10. Control (C) wells receiving HerPBK10 in media containing bovine serum without or with 100× molar excess competitive ligand inhibitor (+Her) are indicated by open bars. Patient sera were provided by the WCRI tissue bank at Cedars-Sinai Medical Center. N=3 wells per treatment.
To determine whether HerPBK10 competes with circulating ligand that may be present in serum, the inventors tested HerPBK10 binding to HER2+ breast cancer cells in human serum obtained from HER2+ patients. The Women's Cancer Research Institute at Cedars-Sinai occasionally acquires limited quantities of patient serum, of which sera from HER2+ patients comprises an even smaller minority. […] Here, the inventors replaced the bovine serum in the routine culturing media with the human serum obtained from the acquired patient samples to assess whether the human serum, especially from HER2+ patients, inhibits cell binding. […]

[5] = target: T1, HER3 (human ErbB3 extracellular domain) (Homo sapiens, UniProt P21860); assay: ELISA of HerPBK10 binding to immobilized HER3
T1 construct: immobilized peptide containing the extracellular domain of human HER3; purchased Prospec
From the text: (§4) Un, no HerPBK10. […] HerPBK10 binding to HER3 is not inhibited by patient serum.
(§5) Binding was also not inhibited by a HER4 peptide or betacellulin (which blocks HER4) (FIG. 26-B).

[6] = test system: HER2+ cells; assay: ELISA of HerPBK10 binding to HER2+ cells with competitive inhibitors
From the text: as §4, §5

[7] = Neutralizing antibody formation after repeat dosing; format: in vivo, mouse; conditions: repeat dosing at therapeutic and 10-fold higher levels, immunocompetent mice
From the text: Therefore, receptor binding is not inhibited by patient sera.

[8] = test system: HER2+ tumor; assay: Biodistribution of labeled HerPBK10, Tz and BSA; format: in vivo, mouse; conditions: tail vein, four hours after injection
Method: (§6) (A) compares biodistribution and intracellular trafficking of HerPBK10 and Tz.
Fluorescently-labeled HerPBK10 was prepared to assess its bio-distribution and cell uptake in comparison to labeled Tz. Equivalent doses of each reagent were injected into the tail veins of HER2+ tumor bearing mice. Tissues were harvested at four hours after injection for imaging. Both reagents were compared to a labeled non-targeted protein, BSA.

[9] = test system: HER2+ MDA-MB-435 cells; assay: Cell uptake (fluorescence confocal microscopy); format: cell-based, human; conditions: after cell surface clustering
Method: as §6
The uptake in HER2+ MDA-MB-435 cells were also evaluated.

[10] = test system: primary tumor cells from a surgical specimen of a HER2+ patient; assay: Binding to primary human tumor cells; conditions: elevated HER3, very low HER2
Method: (§7) N=3. *, p<0.05 compared to parental. […] N=3. *, p<0.05 compared to parental.
(§8) Parental lines were exposed to Tz for 24 hours and then measured cell surface HER3 levels in comparison to non-treated parental cells. […] As a means of evaluating whether the nanoparticles described herein are capable of recognizing HER3 on human tissue, breast tumor tissue was obtained from a surgical specimen of a HER2+ patient and examined whether HerPBK10 could bind this tissue via HER3.

[11] = test system: HER3 on 4T1 mouse mammary tumor cells; assay: Binding of HerPBK10 to mouse mammary tumor cells
From the text: (A) is an amino acid sequence alignment of domains I-II (heregulin-binding domain) of human (SEQ ID NO:13) and mouse HER3 (SEQ ID NO:14). (B) compares relative HER3 levels on different cell lines, detected by ELISA (without permeabilization) using an anti-HER3 antibody that cross-reacts with both human and mouse HER3 (1B2E; Cell Signaling Technologies). […] N=3. *, p<0.05 compared to HerPBK10 alone.
Mouse 4T1 cells, obtained from a BALB/c mouse mammary tumor, are triple-negative and have been used as a syngeneic TNBC model in BALB/c mice. […] The receptor-specific binding of HerPBK10 to mouse HER3 reflects the high level of amino acid sequence identity between mouse and human HER3: 91% identity for the entire protein and 94% in the heregulin-binding region (extracellular domains I and II) (FIG. 32-A). […] Importantly, human BT-549 cells, which are also derived from a TNBC, display elevated HER3 on the cell surface (FIG. 32-B) and provide an additional TNBC cell line to target.

[12] = test system: human cardiosphere-derived cells (CDCs); assay: Human CDC viability; conditions: escalating concentrations, 48 hour exposure
Method: Control groups received saline or HerPBK10 at equivalent concentration to HerMn. Treatments began at ˜200 mm^3 average tumor volume. Tumor volumes were measured before (day 1), during (day 3), and after (days 8, 15, and 22) injections of reagents. N=8-10 tumors/group. *p<0.05 (one-way ANOVA). […] N=3 per conc, from 3 separate experiments.
To assess translatability, the viability of human cardiosphere-derived cells (CDCs) in the presence of HerGa and/or HerMn was examined.

[13] = test system: HER3 on parental cell lines (BT474 and SKBR3); assay: Tz pre-treatment: cell surface HER3 and HerPBK10 binding; format: cell-based, human; conditions: 0.5 mg/mL Tz for 24 hours
Method: N=3. […] N=3. […] N=3. […] N=3. […] N=3. […] N=3.
as §7
The parental and resistant cell lines were pretreated with Tz for 4 or 24 hours before HerDox treatment.
as §8

HerPBK10: receptor binding domain of heregulin fused to adenovirus penton base protein modified by a C-terminal decalysine
effect on HER2+ cell survival [1]: had no effect on either cell line; also recorded: does not induce cell death
effect on HER2− cell survival [2]: had no effect on either cell line
effect on tumor growth [3]: had no effect
cell binding in serum from HER2+ patients, HER2− patients or bovine serum [4]: no significant differences; also recorded: did not prevent HerPBK10 binding
binding to immobilized HER3 after pre-adsorption with free HER3 peptide [5]: inhibited by pre-adsorption of HerPBK10 with free HER3 peptide
binding to immobilized HER3 peptide [5]: binds to an immobilized peptide containing the extracellular domain of human HER3
binding to HER2+ cells with pertuzumab (Pz) [6]: did not prevent HerPBK10 binding
binding to HER2+ cells after pre-adsorption with free HER3 peptide ([6]; 1× and 10× molar ratio): also inhibited HerPBK10 binding
binding to HER2+ cells with HER4 peptide or betacellulin ([6]; betacellulin 10 μg/mL): not inhibited
neutralizing antibody formation against the protein [7]: did not yield detectable neutralizing antibody formation
delivery to the heart, spleen, and muscle [8]: nearly absent delivery
lung delivery [8]: no lung delivery
tumor accumulation [8]: equivalent levels of tumor accumulation
time to significant endocytosis [9]: ≤ 45 min
binding to disaggregated patient tumor cells [10]: exhibiting greater binding than Tz; also recorded: showing greater binding than Tz
binding to 4T1 cells with human HER3 peptide [11]: competitively inhibited by human HER3 peptide
recognition of HER3 on 4T1 cells [11]: is recognized by HerPBK10
effect on CDC viability [12]: no detectable effect on CDC viability
HerPBK10 binding to Tz pre-treated parental cells [13]: augments HerPBK10 binding; also recorded: proportionately increased
